ChEMBL document CHEMBL3792322, “Metabolic investigation on ZL006 for the discovery of a potent prodrug for the treatment of cerebral ischemia” (Bioorg Med Chem Lett, 2016)
Calls of active or inactive are those of the source. No cut-off for these calls is given here.

Legend:
Mus musculus [1] = experiment: Protective activity in BCCAO-induced mouse acute cerebral ischemia model assessed as prolonged surviving time at 4 mg/kg, iv measured 1 hr post dose; format: functional, organism-based
Plasma = experiment: Metabolic stability in mouse plasma at 20 mg/kg, iv measured 15 to 30 mins post dosing by HPLC-MS/MS method; format: ADME, organism-based; conditions: in vivo
Brain [2] = experiment: Drug metabolism in mouse brain assessed as ZL006 formation at 20 mg/kg, iv measured 15 to 30 mins post dosing by HPLC-MS/MS method; format: ADME, organism-based; conditions: in vivo
Mus musculus [3] = experiment: Protective activity in BCCAO-induced mouse acute cerebral ischemia model assessed as prolonged surviving time at 4 mg/kg, iv measured 4 hrs post dose; format: functional, organism-based
Brain [4] = experiment: Drug uptake in mouse brain at 20 mg/kg, iv measured 15 to 30 mins post dosing by HPLC-MS/MS method; format: ADME, organism-based; conditions: in vivo
Rattus norvegicus [5] = experiment: Protective activity in iv dosed MCAO-induced rat focal cerebral ischemia model assessed as reduction in infarct size treated at 1 hr post reperfusion measured after 24 hrs by TTC-staining based analysis; format: functional, organism-based
Rattus norvegicus [6] = experiment: Protective activity in MCAO-induced rat focal cerebral ischemia model assessed as reduction in infarct size at 2 mg/kg, iv administered 1 hr post reperfusion measured after 24 hrs by TTC-staining based analysis; format: functional, organism-based
Rattus norvegicus [7] = experiment: Protective activity in MCAO-induced rat focal cerebral ischemia model assessed as reduction in infarct size at 1 mg/kg, iv administered 1 hr post reperfusion measured after 24 hrs by TTC-staining based analysis; format: functional, organism-based

Structure (SMILES)	Activity (Mus musculus [1])	Stability (Plasma)	Drug metabolism (Brain [2])	Activity (Mus musculus [3])	Drug uptake (Brain [4])	Activity (Rattus norvegicus [5])	Activity (Rattus norvegicus [6])	Activity (Rattus norvegicus [7])
CCOC(=O)c1ccc(NCc2cc(Cl)cc(Cl)c2O)cc1O	Active	Stable	metabolite_detected	Active				
COc1c(Cl)cc(Cl)cc1CNc1ccc(C(=O)O)c(O)c1			metabolite_notdetected					
CN(Cc1cc(Cl)cc(Cl)c1O)c1ccc(C(=O)O)c(O)c1			metabolite_notdetected		Not Active			
COc1cc(NCc2cc(Cl)cc(Cl)c2O)ccc1C(=O)O		Unstable	metabolite_notdetected		Not Active			
O=C(OC1CCCCC1)c1ccc(NCc2cc(Cl)cc(Cl)c2O)cc1O	Active	Stable	metabolite_detected	Active		Dose-dependent effect	inactive	Active
COC(=O)c1ccc(NCc2cc(Cl)cc(Cl)c2O)cc1O	Active	Stable	metabolite_detected					
